Patent publication US20070254312A1, “Protein Kinase Inhibitors and Methods for Identiying Same” (priority 2004, published 2007)
Where two headings read alike, the source gives them in different places. Starred links: 1 amine or outer side, 2 acyl side, 3 side chain; linkers in the order of their positions; H or OH if unused. Non-standard residues stand in square brackets, D forms with d. Residues, ends and D or L forms follow the SMILES beside them. Groups on a side chain read outwards from the residue. *: point of attachment. X2 = N=C(N)NCCC[C@@H](C(=O)*)N(Cc1cccc(O)c1O)Cc1cccc(O)c1O; X1 = N=C(N)NCCC[C@@H](C(=O)[*:2])N(Cc1cccc(O)c1O)[*:1]; Benzoyl(4-NO2) = O=C(c1ccc([N+](=O)[O-])cc1)*; Cysteamide = C(CS[*:3])N[*:1]; Dap = NC[C@H](N)C(=O)O

Experiments:
[1] = molecular target: T1, PKCδ (Homo sapiens, UniProt Q05655); experiment: PKC δ screen, IC50 and Ki determination (Example 2); type: biochemical; design: purchased Panvera; details: for Fold selectivity (IC50), PKC δ: relative to most potently inhibited isoform (=1): δ for F, ζ for G
Procedure: (§1) Protein Kinase C Assays. The peptides […] (for PKC α, β and γ) and […] (for PKC δ, ε, θ, η, τ, and ζ) were used as substrates. […] Total reaction volume in each well was 50 μL. […] Following an additional 5 min incubation at ambient temperature, 75 μL from each reaction well was transferred into each well of a Unifilter (P81 cellulose phosphate paper) assay plate and washed four times with 0.1% phosphoric acid in water. […] Lead compounds from the library were combined into a single 96 well plate and re-assayed as described above in order to identify the best inhibitor. IC50 determinations of resynthesized inhibitor leads for individual PKC isoforms. Assays were performed in triplicate at pH 7.5 and thermostatically maintained at 30° C. using a Boekel constant temperature device. […] The IC50 values for pure compounds as inhibitors were calculated based on the experimental data using GraFit (Erithacus Software Limited). Protein kinase C δ, ε, θ, and η: As described for PKC α, β, and γ except that the assay was performed in the absence of CaCl2. Protein kinase C τ and ζ: As described for PKC α, β, and γ except that the assay was performed in the absence of CaCl2 and DAG. […] Total reaction volume in each well was 50 μL. All the wells were tested in the same plate and each concentration was tested in triplicate. […] Double reciprocal plots were obtained at different concentrations of substrates. Ki values were calculated using Enzyme Kinetics, SigmaPlot (SPSS Inc.).

[2] = molecular target: T2, PKCζ (Homo sapiens, UniProt Q05513); experiment: PKC ζ screen, IC50 and Ki determination (Example 2); type: biochemical; design: purchased Panvera; details: for Fold selectivity (IC50), PKC ζ: relative to most potently inhibited isoform (=1): δ for F, ζ for G
T2 sequence (Q05513 1-592): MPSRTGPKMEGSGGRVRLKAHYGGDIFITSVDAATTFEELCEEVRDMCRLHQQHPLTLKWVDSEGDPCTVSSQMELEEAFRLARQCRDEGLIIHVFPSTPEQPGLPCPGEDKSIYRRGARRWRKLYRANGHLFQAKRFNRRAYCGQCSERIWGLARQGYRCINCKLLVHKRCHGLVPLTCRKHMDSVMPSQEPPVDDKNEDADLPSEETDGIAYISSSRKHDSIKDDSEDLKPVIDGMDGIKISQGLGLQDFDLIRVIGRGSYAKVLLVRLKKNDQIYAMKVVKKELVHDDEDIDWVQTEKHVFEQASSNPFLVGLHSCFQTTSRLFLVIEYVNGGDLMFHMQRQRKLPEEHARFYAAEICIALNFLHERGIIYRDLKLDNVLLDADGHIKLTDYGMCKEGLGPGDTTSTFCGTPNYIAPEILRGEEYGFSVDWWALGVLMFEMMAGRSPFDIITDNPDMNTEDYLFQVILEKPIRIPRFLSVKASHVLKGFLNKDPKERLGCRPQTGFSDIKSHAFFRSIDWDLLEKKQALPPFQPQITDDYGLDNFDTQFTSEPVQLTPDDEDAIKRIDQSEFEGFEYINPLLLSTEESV
Procedure: as §1

[3] = molecular target: T3, PKC βI (Homo sapiens, UniProt P05771); experiment: IC50 determination for individual PKC isoforms (Example 2); type: biochemical; details: for Fold selectivity (IC50), PKC β1: relative to most potently inhibited isoform (=1): δ for F, ζ for G
T3 construct: purchased Panvera
Procedure: (§2) Protein Kinase C Assays. The peptides […] (for PKC α, β and γ) and […] (for PKC δ, ε, θ, η, τ, and ζ) were used as substrates. IC50 determinations of resynthesized inhibitor leads for individual PKC isoforms. Assays were performed in triplicate at pH 7.5 and thermostatically maintained at 30° C. using a Boekel constant temperature device. […] The IC50 values for pure compounds as inhibitors were calculated based on the experimental data using GraFit (Erithacus Software Limited). Protein kinase C δ, ε, θ, and η: As described for PKC α, β, and γ except that the assay was performed in the absence of CaCl2. Protein kinase C τ and ζ: As described for PKC α, β, and γ except that the assay was performed in the absence of CaCl2 and DAG.

[4] = molecular target: T4, PKC ι (Homo sapiens, UniProt P41743); experiment: as above; type: biochemical; details: for Fold selectivity (IC50), PKC ι: relative to most potently inhibited isoform (=1): δ for F, ζ for G, text prints τ
T4 construct: purchased Panvera
T4 sequence (P41743 1-596): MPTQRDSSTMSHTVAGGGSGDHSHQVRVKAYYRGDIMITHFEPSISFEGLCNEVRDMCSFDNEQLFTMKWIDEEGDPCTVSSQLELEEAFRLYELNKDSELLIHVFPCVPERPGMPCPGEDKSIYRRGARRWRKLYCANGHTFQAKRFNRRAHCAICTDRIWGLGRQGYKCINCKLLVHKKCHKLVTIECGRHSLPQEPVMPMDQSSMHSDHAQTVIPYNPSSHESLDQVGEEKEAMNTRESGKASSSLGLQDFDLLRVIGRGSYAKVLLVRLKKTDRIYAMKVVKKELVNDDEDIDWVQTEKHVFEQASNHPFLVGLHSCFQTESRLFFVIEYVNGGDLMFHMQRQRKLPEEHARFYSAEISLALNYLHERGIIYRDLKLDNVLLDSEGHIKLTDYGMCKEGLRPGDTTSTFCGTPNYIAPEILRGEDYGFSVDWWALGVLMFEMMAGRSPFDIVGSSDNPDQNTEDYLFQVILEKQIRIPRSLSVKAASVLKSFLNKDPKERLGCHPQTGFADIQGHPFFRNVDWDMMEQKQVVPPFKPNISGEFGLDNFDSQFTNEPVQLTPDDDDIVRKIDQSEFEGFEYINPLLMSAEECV
Procedure: as §2

[5] = molecular target: T5, PKCα (Homo sapiens, UniProt P17252); experiment: as above; type: biochemical; details: for Fold selectivity (IC50), PKC α: relative to most potently inhibited isoform (=1): δ for F, ζ for G
Procedure: as §2

[6] = molecular target: T6, PKCε (Homo sapiens, UniProt Q02156); experiment: as above; type: biochemical; design: purchased Panvera; details: for Fold selectivity (IC50), PKC ε: relative to most potently inhibited isoform (=1): δ for F, ζ for G
T6 sequence (Q02156 1-737): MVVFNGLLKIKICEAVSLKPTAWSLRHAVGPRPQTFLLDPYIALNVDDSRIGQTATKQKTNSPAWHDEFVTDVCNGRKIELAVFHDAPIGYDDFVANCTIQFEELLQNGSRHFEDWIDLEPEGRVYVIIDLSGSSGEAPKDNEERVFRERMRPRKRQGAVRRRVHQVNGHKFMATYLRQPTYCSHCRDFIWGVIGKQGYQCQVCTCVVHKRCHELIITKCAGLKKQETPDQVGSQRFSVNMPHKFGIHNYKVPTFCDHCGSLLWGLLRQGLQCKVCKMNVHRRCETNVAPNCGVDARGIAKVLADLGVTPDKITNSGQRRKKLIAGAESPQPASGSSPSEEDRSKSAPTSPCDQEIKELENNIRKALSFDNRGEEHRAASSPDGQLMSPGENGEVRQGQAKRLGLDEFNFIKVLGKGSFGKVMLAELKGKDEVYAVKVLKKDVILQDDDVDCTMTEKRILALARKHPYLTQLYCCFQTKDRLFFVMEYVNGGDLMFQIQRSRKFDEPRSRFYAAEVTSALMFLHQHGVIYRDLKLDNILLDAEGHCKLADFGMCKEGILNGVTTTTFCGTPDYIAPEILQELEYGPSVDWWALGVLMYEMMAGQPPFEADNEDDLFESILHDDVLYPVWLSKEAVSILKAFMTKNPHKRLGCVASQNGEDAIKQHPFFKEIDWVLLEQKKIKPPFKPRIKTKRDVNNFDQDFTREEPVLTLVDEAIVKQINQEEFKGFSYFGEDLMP
Procedure: as §2

[7] = molecular target: PKCθ (Homo sapiens, UniProt Q04759); experiment: as above; type: biochemical; design: purchased Panvera; details: for Fold selectivity (IC50), PKC θ: relative to most potently inhibited isoform (=1): δ for F, ζ for G
Procedure: as §2

[8] = molecular target: PKCγ (Homo sapiens, UniProt P05129); experiment: as above; type: biochemical; design: purchased Panvera; details: for Fold selectivity (IC50), PKC γ: relative to most potently inhibited isoform (=1): δ for F, ζ for G
Procedure: as §2

[9] = molecular target: PKCη (Homo sapiens, UniProt P24723); experiment: as above; type: biochemical; design: purchased Panvera; details: for Fold selectivity (IC50), PKC η: relative to most potently inhibited isoform (=1): δ for F, ζ for G
Procedure: as §2

[10] = molecular target: PKC β1 (Homo sapiens, UniProt P05771); details: literature values; relative to most potently inhibited isoform (=1); cited from earlier work
[11] = molecular target: T6, PKCε; design: purchased Panvera; details: literature values; relative to most potently inhibited isoform (=1); cited from earlier work
[12] = molecular target: T5, PKCα; details: cited from earlier work
[13] = molecular target: T1, PKCδ; design: purchased Panvera; details: literature values; relative to most potently inhibited isoform (=1); cited from earlier work
[14] = molecular target: T2, PKCζ; design: purchased Panvera; details: literature values; relative to most potently inhibited isoform (=1); cited from earlier work

Chain of PKCη (P24723 whole entry, canonical isoform): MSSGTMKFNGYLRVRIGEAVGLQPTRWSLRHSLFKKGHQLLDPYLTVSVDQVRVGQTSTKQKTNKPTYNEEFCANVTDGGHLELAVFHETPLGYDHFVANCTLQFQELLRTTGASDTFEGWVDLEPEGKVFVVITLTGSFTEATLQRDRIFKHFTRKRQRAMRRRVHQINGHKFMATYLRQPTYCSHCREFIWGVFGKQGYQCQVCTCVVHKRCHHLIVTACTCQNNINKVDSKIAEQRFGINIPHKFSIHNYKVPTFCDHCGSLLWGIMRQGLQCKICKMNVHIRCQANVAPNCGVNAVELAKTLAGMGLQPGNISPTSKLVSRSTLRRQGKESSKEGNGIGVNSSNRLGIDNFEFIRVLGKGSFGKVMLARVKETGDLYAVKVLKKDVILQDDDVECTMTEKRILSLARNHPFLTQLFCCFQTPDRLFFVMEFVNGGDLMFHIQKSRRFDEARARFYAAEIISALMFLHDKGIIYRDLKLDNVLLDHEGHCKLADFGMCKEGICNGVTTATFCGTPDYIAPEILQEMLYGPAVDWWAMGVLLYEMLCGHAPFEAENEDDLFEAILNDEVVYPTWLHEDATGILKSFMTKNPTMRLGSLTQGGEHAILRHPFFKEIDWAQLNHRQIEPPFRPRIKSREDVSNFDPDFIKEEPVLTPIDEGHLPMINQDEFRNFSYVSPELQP
T1 sequence (Q05655 whole entry, canonical isoform): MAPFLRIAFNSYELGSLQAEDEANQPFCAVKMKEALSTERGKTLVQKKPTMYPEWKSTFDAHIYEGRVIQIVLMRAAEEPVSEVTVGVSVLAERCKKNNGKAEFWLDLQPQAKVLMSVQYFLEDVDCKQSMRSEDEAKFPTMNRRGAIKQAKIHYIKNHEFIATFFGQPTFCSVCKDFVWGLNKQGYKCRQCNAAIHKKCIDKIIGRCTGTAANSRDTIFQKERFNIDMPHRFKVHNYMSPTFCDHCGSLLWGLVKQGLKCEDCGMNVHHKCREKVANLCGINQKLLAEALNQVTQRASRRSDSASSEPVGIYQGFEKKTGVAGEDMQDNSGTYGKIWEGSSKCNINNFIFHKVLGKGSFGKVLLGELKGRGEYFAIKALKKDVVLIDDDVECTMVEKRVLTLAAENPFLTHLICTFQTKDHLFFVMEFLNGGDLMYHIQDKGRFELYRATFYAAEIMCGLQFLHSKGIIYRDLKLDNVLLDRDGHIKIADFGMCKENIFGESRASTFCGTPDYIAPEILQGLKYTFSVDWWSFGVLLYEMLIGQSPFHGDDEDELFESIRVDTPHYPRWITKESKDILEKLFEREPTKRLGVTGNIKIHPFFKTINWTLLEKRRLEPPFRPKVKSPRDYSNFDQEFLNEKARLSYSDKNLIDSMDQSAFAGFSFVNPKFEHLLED
Chain of PKCθ (Q04759 whole entry, canonical isoform): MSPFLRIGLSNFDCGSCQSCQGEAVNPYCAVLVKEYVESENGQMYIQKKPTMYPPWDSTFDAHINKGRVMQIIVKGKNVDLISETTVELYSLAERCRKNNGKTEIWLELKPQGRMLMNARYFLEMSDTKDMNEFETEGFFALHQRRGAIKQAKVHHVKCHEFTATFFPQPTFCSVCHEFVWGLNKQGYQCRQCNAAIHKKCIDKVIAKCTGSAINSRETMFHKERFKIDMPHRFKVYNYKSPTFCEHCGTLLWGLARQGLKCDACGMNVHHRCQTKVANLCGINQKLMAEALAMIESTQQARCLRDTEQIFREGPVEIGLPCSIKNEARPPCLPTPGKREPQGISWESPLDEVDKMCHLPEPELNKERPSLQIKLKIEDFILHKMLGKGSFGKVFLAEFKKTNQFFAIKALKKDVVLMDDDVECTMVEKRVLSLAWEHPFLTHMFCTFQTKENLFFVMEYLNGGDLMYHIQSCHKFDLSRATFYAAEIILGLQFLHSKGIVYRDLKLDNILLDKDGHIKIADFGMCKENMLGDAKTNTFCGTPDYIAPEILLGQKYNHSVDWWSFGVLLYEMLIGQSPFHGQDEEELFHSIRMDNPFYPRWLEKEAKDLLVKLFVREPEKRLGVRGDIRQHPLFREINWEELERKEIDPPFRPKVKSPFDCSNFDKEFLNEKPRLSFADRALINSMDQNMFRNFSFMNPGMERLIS
T3 sequence (P05771 whole entry, canonical isoform): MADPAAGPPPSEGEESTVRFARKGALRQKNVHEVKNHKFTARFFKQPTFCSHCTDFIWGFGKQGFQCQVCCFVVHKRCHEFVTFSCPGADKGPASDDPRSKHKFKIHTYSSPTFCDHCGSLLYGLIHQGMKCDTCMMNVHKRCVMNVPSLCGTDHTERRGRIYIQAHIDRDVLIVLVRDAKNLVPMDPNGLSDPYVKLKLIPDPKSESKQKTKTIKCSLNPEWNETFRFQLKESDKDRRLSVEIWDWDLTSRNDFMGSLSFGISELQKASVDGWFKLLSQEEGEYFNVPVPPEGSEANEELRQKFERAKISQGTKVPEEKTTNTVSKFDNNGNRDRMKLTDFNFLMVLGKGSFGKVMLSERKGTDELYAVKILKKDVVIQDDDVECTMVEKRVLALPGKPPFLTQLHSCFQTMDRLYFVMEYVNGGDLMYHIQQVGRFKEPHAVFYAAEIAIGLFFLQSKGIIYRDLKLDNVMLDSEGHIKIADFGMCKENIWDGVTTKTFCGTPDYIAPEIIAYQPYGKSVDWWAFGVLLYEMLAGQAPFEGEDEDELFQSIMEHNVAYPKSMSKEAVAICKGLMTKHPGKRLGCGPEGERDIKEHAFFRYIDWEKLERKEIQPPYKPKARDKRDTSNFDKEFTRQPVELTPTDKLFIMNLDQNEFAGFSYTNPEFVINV
Chain of PKC β1 (P05771 whole entry, canonical isoform): as the sequence (P05771 whole entry, canonical isoform) above

Row | Compound | IC50 [1] | Fold selectivity (IC50), PKC ζ [2] | Fold selectivity (IC50), PKC β1 [3] | Fold selectivity (IC50), PKC ι [4] | Fold selectivity (IC50), PKC α [5] | Fold selectivity (IC50), PKC ε [6] | Fold selectivity (IC50), PKC θ [7] | Fold selectivity (IC50), PKC γ [8] | Fold selectivity (IC50), PKC η [9] | Fold selectivity (IC50), PKC δ [1] | other results
1 | CSCC[C@H](NC(=O)[C@H](Cc1ccccc1)NC(=O)[C@H](CNC(C)=O)NC(=O)CNC(=O)[C@H](CCC(N)=O)NC(=O)[C@H](CCCNC(=N)N)NC(=O)[C@H](CCCNC(=N)N)NC(C)=O)C(=O)N[C@@H](Cc1ccc(O)cc1)C(=O)N[C@@H](Cc1ccccc1)C(=O)NCCS [Compound A] (Ac-RRQG[Dap](Ac)FMYF-Cysteamide) | 50000 nM |  |  |  |  |  |  |  |  |  | 
2 | CSCC[C@H](NC(=O)[C@H](Cc1ccccc1)NC(=O)[C@H](CNC(=O)CNC(=O)c1ccc([N+](=O)[O-])cc1)NC(=O)CNC(=O)[C@H](CCC(N)=O)NC(=O)[C@H](CCCNC(=N)N)NC(=O)[C@@H](N)CCCNC(=N)N)C(=O)N[C@@H](Cc1ccc(O)cc1)C(=O)N[C@@H](Cc1ccccc1)C(=O)NCCS [Compound E] (H-RRQG[Dap]([Gly-Benzoyl(4-NO2)])FMYF-Cysteamide) | 25 ± 2 nM |  |  |  |  |  |  |  |  |  | IC50 [2]: 22 ± 3 nM; Selectivity (Compound E), PKC ζ ([2]; IC50 relative to βI (=1)): 2.8; IC50 [3]: 8 ± 0.5 nM; Selectivity (Compound E), PKC βI ([3]; IC50 relative to βI (=1)): 1; Selectivity (Compound E), PKC ι ([4]; IC50 relative to βI (=1)): 94; IC50 [5]: 3100 ± 200 nM; Selectivity (Compound E), PKC α ([5]; IC50 relative to βI (=1)): 387; Selectivity (Compound E), PKC ε ([6]; IC50 relative to βI (=1)): 287; Selectivity (Compound E), PKC θ ([7]; IC50 relative to βI (=1)): 1775; Selectivity (Compound E), PKC γ ([8]; IC50 relative to βI (=1)): 550; Selectivity (Compound E), PKC η ([9]; IC50 relative to βI (=1)): 1650; Selectivity (Compound E), PKC δ ([1]; IC50 relative to βI (=1)): 3.1
3 | CSCC[C@H](NC(=O)[C@H](Cc1ccccc1)NC(=O)[C@H](CNC(=O)CNC(=O)c1ccc([N+](=O)[O-])cc1)NC(=O)CNC(=O)[C@H](CCC(N)=O)NC(=O)[C@H](CCCNC(=N)N)NC(=O)[C@H](CCCNC(=N)N)NCc1cccc(O)c1O)C(=O)N[C@@H](Cc1ccc(O)cc1)C(=O)N[C@@H](Cc1ccccc1)C(=O)NCCS [Compound F] (H-[X1]RQG[Dap]([Gly-Benzoyl(4-NO2)])FMYF-Cysteamide) | 18 ± 2 nM | 200 fold | 172 fold | 26 fold | 944 fold | 489 fold | 761 fold | 500 fold | 683 fold | 1 fold | Ki ([1]; versus peptide substrate): 8 ± 1 nM
4 | CSCC[C@H](NC(=O)[C@H](Cc1ccccc1)NC(=O)[C@H](CNC(=O)CNC(=O)c1ccc([N+](=O)[O-])cc1)NC(=O)CNC(=O)[C@H](CCC(N)=O)NC(=O)[C@H](CCCNC(=N)N)NC(=O)[C@H](CCCNC(=N)N)N(Cc1cccc(O)c1O)Cc1cccc(O)c1O)C(=O)N[C@@H](Cc1ccc(O)cc1)C(=O)N[C@@H](Cc1ccccc1)C(=O)NCCS [Compound G] (X2-RQG[Dap]([Gly-Benzoyl(4-NO2)])FMYF-Cysteamide) | 5200 ± 100 nM | 1 fold | 730 fold | 1493 fold | 6333 fold | 4600 fold | 2227 fold | 5093 fold | 2040 fold | 693 fold | 
5 | CN(C)CCCn1cc(C2=C(c3c[nH]c4ccccc34)C(=O)NC2=O)c2ccccc21 [Gö6850] |  |  |  |  |  |  |  |  |  |  | Fold selectivity (IC50), PKC β1 [10]: 2 fold; Fold selectivity (IC50), PKC ε [11]: 16 fold; IC50 ([12]; literature value, read-out: IC50 of the most potently inhibited isoform, PKC α (in parentheses)): 8.4 nM; Fold selectivity (IC50), PKC α ([12]; literature values, relative to most potently inhibited isoform (=1)): 1 fold; Fold selectivity (IC50), PKC δ [13]: 25 fold; Fold selectivity (IC50), PKC ζ [14]: 690 fold
